Starred links: 1 amine or outer side, 2 acyl side, 3 side chain; linkers in the order of their positions; H or OH if unused. Positions of bridges follow the written chain, without caps; N, C: chain ends. Non-standard residues stand in square brackets, D forms with d. Residues, ends and D or L forms follow the SMILES beside them. Groups on a side chain read outwards from the residue. *: point of attachment. Trp(1-Me) = Cn1cc(C[C@H](N)C(=O)O)c2ccccc21; C16 diacid = O=C(O)CCCCCCCCCCCCCCC(=O)*; γGlu = O=C(O)[C@H](CCC(=O)[*:2])N[*:1]; AEEA = NCCOCCOCC(=O)O; Sar = CNCC(=O)O
Experiments:
[1] = tested on: classical complement pathway; assay: In vitro haemolysis assay (inhibition of classical complement pathway); type: cell-based, human; settings: human serum, sensitized sheep red blood cells; Table 3, given as upper bounds; read-out: IC50, inhibition of hemolysis
In short: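 Compound dilutions preincubated 15 min at room temperature with diluted human serum (titrated per batch for 70-90% maximal haemolysis), then antibody-sensitized sheep RBC (10^7/well) added for 30 min at 37 °C in Tris/casein buffer, pH 7.4. Stopped with EDTA; haemolysis read at 405 nm; IC50 by 4PL fit.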

[2] = Solubility test at 10 mg/mL (visual inspection and light scattering); type: physicochemical; settings: for Solubility, Condition 1: Acetate pH 4; for Solubility, Condition 2: Acetate pH 5; for Solubility, Condition 3: Phosphate pH 6; for Solubility, Condition 4: Phosphate pH 7; for Solubility, Condition 5: Phosphate pH 7.5

| SMILES | IC50 [1] [nM] | Solubility, Condition 1 [2] | Solubility, Condition 2 [2] | Solubility, Condition 3 [2] | Solubility, Condition 4 [2] | Solubility, Condition 5 [2] |
| --- | --- | --- | --- | --- | --- | --- |
| CC[C@H](C)[C@@H]1NC(=O)[C@@H](NC(=O)[C@H](Cc2ccc(O)cc2)NC(=O)[C@H](C)NC(=O)[C@H](CO)NC(=O)CNC(=O)[C@H](CCC(=O)O)NC(C)=O)CSSC[C@@H](C(=O)N(C)CC(=O)N[C@@H](CCC(=O)O)C(N)=O)NC(=O)[C@H](CCCCNC(=O)COCCOCCNC(=O)COCCOCCNC(=O)CC[C@H](NC(=O)CCCCCCCCCCCCCCC(=O)O)C(=O)O)NC(=O)[C@H](Cc2c[nH]cn2)NC(=O)[C@H](CCC(=O)O)NC(=O)CNC(=O)[C@H](Cc2c[nH]c3ccccc23)NC(=O)[C@H](CC(=O)O)NC(=O)[C@H](CCC(N)=O)NC(=O)[C@H](Cc2cn(C)c3ccccc23)NC1=O [Compound 103, Ac-EGSAYC(1)I[1-Me-Trp]QDWGEH-[K([15-carboxy-pentadecanoyl][γGlu][Peg3][Peg3])]-C(1)[Sar]E-NH2] (Ac-EGSAYCI[Trp(1-Me)]QDWGEHK([AEEA-AEEA-γGlu-C16 diacid])C[Sar]E-NH2; disulfide 6-16) | < 100 | − (“−” denotes lack of solubility at the given condition, as UV absorbance at 340 nm exceeds 0.1 AU and/or it is visibly turbid or contains particles) | + (“+” denotes solubility at the given condition, as determined by UV absorbance being less than 0.1 AU at 340 nm and the sample being clear when manually inspected) | + (“+” denotes solubility at the given condition, as determined by UV absorbance being less than 0.1 AU at 340 nm and the sample being clear when manually inspected) | + (“+” denotes solubility at the given condition, as determined by UV absorbance being less than 0.1 AU at 340 nm and the sample being clear when manually inspected) | + (“+” denotes solubility at the given condition, as determined by UV absorbance being less than 0.1 AU at 340 nm and the sample being clear when manually inspected) |
| CC[C@H](C)[C@H](NC(C)=O)C(=O)N[C@H]1CSSC[C@@H](C(=O)N[C@@H](CCC(=O)O)C(=O)NCC(=O)N[C@@H](CCC(=O)O)C(N)=O)NC(=O)[C@H](CCCNC(=N)N)NC(=O)[C@H](Cc2c[nH]cn2)NC(=O)[C@H](CCC(=O)O)NC(=O)CNC(=O)[C@H](Cc2c[nH]c3ccccc23)NC(=O)[C@H](CC(=O)O)NC(=O)[C@H](CCC(N)=O)NC(=O)[C@H](Cc2c[nH]c3ccccc23)NC(=O)[C@H]([C@@H](C)CC)NC1=O [Compound 27] (Ac-ICIWQDWGEHRCEGE-NH2; disulfide 2-12) | < 100 | − (“−” denotes lack of solubility at the given condition, as UV absorbance at 340 nm exceeds 0.1 AU and/or it is visibly turbid or contains particles) | − (“−” denotes lack of solubility at the given condition, as UV absorbance at 340 nm exceeds 0.1 AU and/or it is visibly turbid or contains particles) | − (“−” denotes lack of solubility at the given condition, as UV absorbance at 340 nm exceeds 0.1 AU and/or it is visibly turbid or contains particles) | + (“+” denotes solubility at the given condition, as determined by UV absorbance being less than 0.1 AU at 340 nm and the sample being clear when manually inspected) | + (“+” denotes solubility at the given condition, as determined by UV absorbance being less than 0.1 AU at 340 nm and the sample being clear when manually inspected) |
| CC[C@H](C)[C@@H]1NC(=O)[C@@H](NC(=O)[C@H](Cc2ccccc2)NC(=O)[C@H](CCC(=O)O)NC(=O)[C@H](CO)NC(C)=O)CSSC[C@@H](C(=O)N(C)CC(=O)NCC(=O)N[C@@H](C)C(=O)N[C@@H](CCC(=O)O)C(=O)N[C@@H](CO)C(N)=O)NC(=O)[C@H](CCCNC(=N)N)NC(=O)[C@H](Cc2c[nH]cn2)NC(=O)[C@H](CCC(=O)O)NC(=O)CNC(=O)[C@H](Cc2c[nH]c3ccccc23)NC(=O)[C@H](CC(=O)O)NC(=O)[C@H](CCC(N)=O)NC(=O)[C@H](Cc2cn(C)c3ccccc23)NC1=O [Compound 74] (Ac-SEFCI[Trp(1-Me)]QDWGEHRC[Sar]GAES-NH2; disulfide 4-14) | < 100 | − (“−” denotes lack of solubility at the given condition, as UV absorbance at 340 nm exceeds 0.1 AU and/or it is visibly turbid or contains particles) | + (“+” denotes solubility at the given condition, as determined by UV absorbance being less than 0.1 AU at 340 nm and the sample being clear when manually inspected) | + (“+” denotes solubility at the given condition, as determined by UV absorbance being less than 0.1 AU at 340 nm and the sample being clear when manually inspected) | + (“+” denotes solubility at the given condition, as determined by UV absorbance being less than 0.1 AU at 340 nm and the sample being clear when manually inspected) | + (“+” denotes solubility at the given condition, as determined by UV absorbance being less than 0.1 AU at 340 nm and the sample being clear when manually inspected) |
| CC[C@H](C)[C@@H]1NC(=O)[C@@H](NC(=O)[C@@H](NC(=O)[C@H](CCC(=O)O)NC(=O)CNC(=O)[C@H](CCC(=O)O)NC(C)=O)[C@@H](C)CC)CSSC[C@@H](C(=O)N[C@H](C(N)=O)[C@@H](C)O)NC(=O)[C@H](CCCNC(=N)N)NC(=O)[C@H](Cc2c[nH]cn2)NC(=O)[C@H](CCC(=O)O)NC(=O)CNC(=O)[C@H](Cc2c[nH]c3ccccc23)NC(=O)[C@H](CC(=O)O)NC(=O)[C@H](CCC(N)=O)NC(=O)[C@H](Cc2c[nH]c3ccccc23)NC1=O [Compound 30] (Ac-EGEICIWQDWGEHRCT-NH2; disulfide 5-15) | < 100 | − (“−” denotes lack of solubility at the given condition, as UV absorbance at 340 nm exceeds 0.1 AU and/or it is visibly turbid or contains particles) | − (“−” denotes lack of solubility at the given condition, as UV absorbance at 340 nm exceeds 0.1 AU and/or it is visibly turbid or contains particles) |  | + (“+” denotes solubility at the given condition, as determined by UV absorbance being less than 0.1 AU at 340 nm and the sample being clear when manually inspected) | + (“+” denotes solubility at the given condition, as determined by UV absorbance being less than 0.1 AU at 340 nm and the sample being clear when manually inspected) |
| CC[C@H](C)[C@H](NC(=O)[C@H](C)NC(=O)[C@H](CO)NC(=O)CNC(=O)[C@H](CCC(=O)O)NC(C)=O)C(=O)N[C@H]1CSSC[C@@H](C(=O)N(C)CC(=O)N[C@@H](CCC(=O)O)C(N)=O)NC(=O)[C@H](CCCNC(=N)N)NC(=O)[C@H](Cc2c[nH]cn2)NC(=O)[C@H](CCC(=O)O)NC(=O)CNC(=O)[C@H](Cc2c[nH]c3ccccc23)NC(=O)[C@H](CC(=O)O)NC(=O)[C@H](CCC(N)=O)NC(=O)[C@H](Cc2cn(C)c3ccccc23)NC(=O)[C@H]([C@@H](C)CC)NC1=O [Compound 49] (Ac-EGSAICI[Trp(1-Me)]QDWGEHRC[Sar]E-NH2; disulfide 6-16) | < 100 | − (“−” denotes lack of solubility at the given condition, as UV absorbance at 340 nm exceeds 0.1 AU and/or it is visibly turbid or contains particles) | − (“−” denotes lack of solubility at the given condition, as UV absorbance at 340 nm exceeds 0.1 AU and/or it is visibly turbid or contains particles) | + (“+” denotes solubility at the given condition, as determined by UV absorbance being less than 0.1 AU at 340 nm and the sample being clear when manually inspected) | + (“+” denotes solubility at the given condition, as determined by UV absorbance being less than 0.1 AU at 340 nm and the sample being clear when manually inspected) | + (“+” denotes solubility at the given condition, as determined by UV absorbance being less than 0.1 AU at 340 nm and the sample being clear when manually inspected) |
| CC[C@H](C)[C@@H]1NC(=O)[C@@H](NC(=O)[C@H](Cc2ccccc2)NC(=O)[C@H](CCC(=O)O)NC(=O)[C@H](CO)NC(C)=O)CSSC[C@@H](C(=O)N(C)CC(=O)N[C@@H](CCC(=O)O)C(N)=O)NC(=O)[C@H](CCCNC(=N)N)NC(=O)[C@H](Cc2c[nH]cn2)NC(=O)[C@H](CCC(=O)O)NC(=O)CN(C)C(=O)[C@H](Cc2c[nH]c3ccccc23)NC(=O)[C@H](CC(=O)O)NC(=O)[C@H](CCC(N)=O)NC(=O)[C@H](Cc2cn(C)c3ccccc23)NC1=O [Compound 79, Ac-SEFC(1)I[1-Me-Trp]QDW[Sar]EHRC(1)[Sar]E-NH2] (Ac-SEFCI[Trp(1-Me)]QDW[Sar]EHRC[Sar]E-NH2; disulfide 4-14) | < 100 | − (“−” denotes lack of solubility at the given condition, as UV absorbance at 340 nm exceeds 0.1 AU and/or it is visibly turbid or contains particles) | − (“−” denotes lack of solubility at the given condition, as UV absorbance at 340 nm exceeds 0.1 AU and/or it is visibly turbid or contains particles) | + (“+” denotes solubility at the given condition, as determined by UV absorbance being less than 0.1 AU at 340 nm and the sample being clear when manually inspected) | + (“+” denotes solubility at the given condition, as determined by UV absorbance being less than 0.1 AU at 340 nm and the sample being clear when manually inspected) | + (“+” denotes solubility at the given condition, as determined by UV absorbance being less than 0.1 AU at 340 nm and the sample being clear when manually inspected) |

Reference: patent US11965039B2, “Compstatin analogues and their medical uses” (priority 2018, dated 2024)
